Columns and labels:
GHSR1a [1] = biological target: T1, GHSR1a (Homo sapiens, UniProt Q92847); experiment: Calcium FLIPR assay, GHSR-1a antagonism (reduction of ghrelin response); type: cell-based; settings: HEK293/GHSR1a cells, ghrelin 10 nM
T1 construct: expressed in transfected cells; host or cells: HEK293
Method: (§1) The intracellular calcium assay was carried out in a 384-well format FLIPR™ (Molecular Device) HEK293/GHSR1a cell line. Cells were seeded 24 hr prior to the experiments at an optimal density per well. Preincubation with selected calcium dye lasted for 30-60 min at room temperature or 37° C. Test compounds, dissolved in DMSO, were added at the appropriate time and incubated for 15 min followed by the addition of ghrelin with FlexStation or FLIPR. Relative fluorescence was monitored by the FLIPR™ Molecular Device. EC50 and IC50 values were estimated from dose-response data using GraphPad Prism software. To check for GHSR-1a agonism the compound was added at t=20 sec. and the calcium response was followed for 2 minutes. To check for GHSR-1a antagonism the compound and Ghrelin (10 nM) were added to the cells at t=20 sec. and the calcium response was measured for 2 minutes. The potency of the antagonist was calculated by its ability to reduce the ghrelin response. Dose-response curves were made for relevant antagonists.

GHSR1a [2] = biological target: T1, GHSR1a; experiment: Calcium FLIPR assay, GHSR-1a agonism; type: cell-based; set-up: Emax: unit not given here; settings: HEK293/GHSR1a cells
Method: as §1

T1 sequence (Q92847 whole entry): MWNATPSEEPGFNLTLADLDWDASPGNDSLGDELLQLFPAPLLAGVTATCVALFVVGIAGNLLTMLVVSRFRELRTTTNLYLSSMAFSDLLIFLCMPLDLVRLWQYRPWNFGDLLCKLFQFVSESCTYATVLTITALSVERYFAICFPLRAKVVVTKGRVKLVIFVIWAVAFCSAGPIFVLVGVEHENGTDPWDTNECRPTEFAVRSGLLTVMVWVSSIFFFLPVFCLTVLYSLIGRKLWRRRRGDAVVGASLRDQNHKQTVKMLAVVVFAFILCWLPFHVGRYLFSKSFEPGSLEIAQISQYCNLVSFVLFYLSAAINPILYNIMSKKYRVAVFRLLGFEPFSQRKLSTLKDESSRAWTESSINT

Compound	IC50 (GHSR1a [1]) [nM]	EC50 (GHSR1a [2]) [nM]	Emax (GHSR1a [2])
CC(NC(=O)N(C)C1CCN(C)CC1)c1ccc(-c2cc(F)cc(CO)c2)c(Cl)c1Cl (stereo not drawn) [Compound H0696, 3-(1-(2,3-dichloro-3′-fluoro-5′-(hydroxymethyl)-[1,1′-biphenyl]-4-yl)ethyl)-1-methyl-1-(1-methylpiperidin-4-yl)urea]	120	> 30000	–
COCCc1cncc(-c2ccc(C(C)NC(=O)N(C)C3CCN(C)CC3)c(Cl)c2Cl)c1 (stereo not drawn) [Compound H0714, 3-(1-(2,3-dichloro-4-(5-(2-methoxyethyl)pyridin-3-yl)phenyl)ethyl)-1-methyl-1-(1-methylpiperidin-4-yl)urea]	453	> 30000	–
COC(=O)C(NC(=O)N(C)C1CCN(C)CC1)c1ccc(-c2cncnc2)c(Cl)c1Cl (stereo not drawn) [Compound H0662, methyl 2-(2,3-dichloro-4-(pyrimidin-5-yl)phenyl)-2-(3-methyl-3-(1-methylpiperidin-4-yl)ureido)acetate]	≥ 1000	> 30000	–
COC(=O)c1ccc(C#Cc2ccc(C(C)NC(=O)N(C)C3CCN(C)CC3)c(Cl)c2Cl)s1 (stereo not drawn) [Compound H0779]	429	–	–
CC(NC(=O)N(C)C1CCN(C)CC1)c1ccc(-c2cccnc2)c2ccccc12 (stereo not drawn) [Compound H0577, 1-methyl-1-(1-methylpiperidin-4-yl)-3-(1-(4-(pyridin-3-yl)naphthalen-1-yl)ethyl)urea]	233	> 30000	–
COc1ccc(C(C#N)NC(=O)N(C)C2CCN(C)CC2)c(Cl)c1Cl (stereo not drawn) [Compound H0669, 3-(cyano(2,3-dichloro-4-methoxyphenyl)methyl)-1-methyl-1-(1-methylpiperidin-4-yl)urea]	–	5	4961
CC(NC(=O)N(C)C1CCN(C)CC1)c1ccc(-c2cncnc2)c2ccccc12 (stereo not drawn) [Compound H0579, 1-methyl-1-(1-methylpiperidin-4-yl)-3-(1-(4-(pyrimidin-5-yl)naphthalen-1-yl)ethyl)urea]	–	> 30000	–

More lines, now with the values ahead:

IC50 (GHSR1a [1]) [nM]	EC50 (GHSR1a [2]) [nM]	Emax (GHSR1a [2])	Compound
7	> 30000	–	CCC(NC(=O)N(CC)C1CCN(C)CC1)c1ccc(-c2cnccn2)c(Cl)c1Cl (stereo not drawn) [Compound H0896, 3-(1-(2,3-dichloro-4-(pyrazin-2-yl)phenyl)propyl)-1-ethyl-1-(1-methylpiperidin-4-yl)urea]
1200	> 30000	–	CC(NC(=O)N(C)C1CCN(C)CC1)c1ccc(-c2cnccn2)c2ccccc12 (stereo not drawn) [Compound H0850, 1-methyl-1-(1-methylpiperidin-4-yl)-3-(1-(4-(pyrazin-2-yl)naphthalen-1-yl)ethyl)urea]
1200	> 30000	–	CC(NC(=O)N(C)C1CCN(C)CC1)c1ccc(-c2cnc(N3CCN(C)CC3)cn2)c(Cl)c1Cl (stereo not drawn) [Compound H0822, 3-(1-(2,3-dichloro-4-(5-(4-methylpiperazin-1-yl)pyrazin-2-yl)phenyl)ethyl)-1-methyl-1-(1-methylpiperidin-4-yl)urea]
1200	> 30000	–	Cc1nccnc1-c1ccc(C(C)NC(=O)N(C)C2CCN(C)CC2)c(Cl)c1Cl (stereo not drawn) [Compound H0831, 3-(1-(2,3-dichloro-4-(3-methylpyrazin-2-yl)phenyl)ethyl)-1-methyl-1-(1-methylpiperidin-4-yl)urea]
256	> 30000	–	CC(NC(=O)N(C)C1CCN(C)CC1)c1ccc(C#CC2CC2)c(Cl)c1F (stereo not drawn) [Compound H0855, 3-(1-(3-chloro-4-(cycloprropylethynyl)-2-fluorophenyl)ethyl)-1-methyl-1-(1-methylpiperidin-4-yl)urea]
149	217	2339	CC(NC(=O)N(C)C1CCN(C)CC1)c1ccc(-c2ccc(C#N)cc2)c(Cl)c1Cl (stereo not drawn) [Compound H0809, 3-(1-(2,3-dichloro-4′-cyano-[1,1′-biphenyl]-4-yl)ethyl)-1-methyl-1-(1-methylpiperidin-4-yl)urea]
376	> 30000	–	CC(NC(=O)N(C)C1CCN(C)CC1)c1ccc(-c2cnc3ccccc3n2)c(Cl)c1Cl (stereo not drawn) [Compound H0828, 3-(1-(2,3-dichloro-4-(quinoxalin-2-yl)phenyl)ethyl)-1-methyl-1-(1-methylpiperidin-4-yl)urea]

Source: patent US9546157B2, “Asymmetric piperidinyl-substituted ureas as medicines” (Helsinn Healthcare SA, priority 2014, dated 2017)
